Reference: patent US20180042874A1, “METHOD FOR TREATING OSTEOPOROSIS” (China Medical University, priority 2016, published 2018)

Assays:
Type in all cases: cell-based, mouse
[1] = tested on: c-Fos; assay: Western blot of MAPK downstream protein c-Fos; settings: 10 μg/ml co-treated with 100 ng/ml RANKL, 48 hours
Description: (§1) The effect of the compound of formula I on the protein expression of osteoclast MAPKs pathways induced by receptor activator of nuclear factor κB ligand was studied, experiments were performed by using the Western blot method; RAW 264.7 cells were rinsed in ice-cold PBS, cell lysis buffer was added, the components of the buffer solution included: 10 mM 4-(2-hydroxyethyl)-1-piperazineethanesulfonic acid (HEPES), 1.5 mM MgCl2, 0.5 mM dithiothreitol (DTT), 0.5 μg/ml leupeptin and 6.4% Nonidet P-40, reacted on ice for 15 minutes. The cells were scraped off with a spatula, collected into a 1.5 ml centrifuge tube, the cells were thoroughly broken by using a shaker; centrifuged at 12,000 rpm, 4° C. for 10 minutes; supernatant was added into a new 1.5 ml centrifuge tube; boiled with IX sodiumdodecyl sulfate (SDS) sample buffer, followed by electrophoresis using 10 to 12% SDS-PAGE. […] The transfer membrane was rinsed again and the membrane loaded with chemical luminescence reagent ECL was allowed to react with a photosensitive sheet in a darkroom for a suitable period of time, the photosensitive sheet then reacted with the developer. After the photosensitive sheet was exposed to light a band-shaped antibody-binding proteins was observed, quantified by the density of the bands. […]

[2] = tested on: JNK; assay: Western blot of MAPK pathway, phosphorylated JNK; settings: 10 μg/ml co-treated with 100 ng/ml RANKL, 0-60 minutes
Description: as §1

[3] = tested on: osteoclast differentiation induced by receptor activator of nuclear factor κB ligand in RAW 264.7 cells; assay: Osteoclast differentiation test (tartrate-resistant acid phosphatase staining)
Excerpt: The present invention used monocyte/macrophage cell line RAW 264.7 from mouse as an experimental model of the osteoclast differentiation system. RAW 264.7 cells differentiated into osteoclasts in an environment containing receptor activator of nuclear factor κB ligand. RAW 264.7 was obtained from a tumor induced by Abelson murine leukemia virus and purchased from the American Type Culture Collection (ATCC; Rockville, Md.). To culture osteoclasts, RAW 264.7 cells were used, cultured in a 24-well plate, the number of cells in each well was 1×10^4 cell/ml and cultured in a medium containing 100 ng/ml of receptor activator of nuclear factor κB ligand or co-treated with different concentrations of the compound of formula I.
In order to simulate physiological functions of the bone, we simulated the in vivo environment and some hormones essential to differentiation were added. The hormone environment suitable for […] cells was simulated for osteoclast differentiation. […] Markers for osteoclast differentiation were evaluated by staining with tartrate-resistant acid phosphatase. […]
Osteoclast formation was detected by quantifying the staining positive rate of tartrate-resistant acid phosphatase (387-A, Sigma-Aldrich, St. Louis, Mo.). […]

[4] = tested on: NFATc2; assay: Western blot of MAPK downstream protein NFATc2; settings: 10 μg/ml co-treated with 100 ng/ml RANKL, 48 hours
Description: as §1

## CNC(=O)N[C@]1(C)CCC[C@@]2(C)C3CC[C@@]4(C)C[C@]3(CCC21)CC4=O (single isomer, unassigned; ent-16) [compound of formula I, ent-16-oxobeyeran-19-N-methylureido]
[1]
  c-Fos protein expression: significantly reduced
[2]
  expression of phosphorylated JNK: decreased
[3]; 10 μg/ml co-treated with 100 ng/ml RANKL, 2, 4, 6 days
  osteoclast differentiation over time (TRAP-positive multinucleated cells): significant and inhibitory effect
[3]; 10 μg/ml co-treated with 100 ng/ml RANKL, 6 days
  level of osteoclast differentiation (TRAP-positive multinucleated cells): decrease in the level of osteoclast differentiation
[4]
  NFATc2 protein expression: significantly reduced
